The text below walks through data of ChEMBL document CHEMBL3988442, “University of Dundee, Small-Polar-MMV Screening Library” (2021).

Assay [1] concerns the target AMP-activated protein kinase, AMPK. Put plainly: AMP-dependent Kinase enzyme assay. An in vitro enzyme assay that detects ADP turnover that is directly proportional to AMPK activity. This uses naive AMPK that is activated during the assay with MK-8722. Type of assay: functional, Homo sapiens.
For assay [2], the system named is Trypanosoma brucei. Put plainly: Trypanosoma brucei 72 hour study. Type of assay: functional, organism-based. The following applies: for IC50: Trypanosoma brucei, 72 h.
Assay [3] concerns Leishmania donovani. Put plainly: Leishmania intramacrophage assay. Format: functional, organism-based. The following applies: for IC50: Leishmania donovani.
Assay [4] in a line: In vitro enzyme assay to detect hydrolysis of chlorophenol red-beta-D-[…] directly proportional to the number of Toxoplasma stably expressing beta-galactosidase. Format: functional, organism-based, Toxoplasma gondii. Particulars: for IC50: Toxoplasma gondii.
The target in assay [5] is T1, Histidine--tRNA ligase (Leishmania infantum, UniProt A4I591).
T1 sequence (A4I591 whole entry): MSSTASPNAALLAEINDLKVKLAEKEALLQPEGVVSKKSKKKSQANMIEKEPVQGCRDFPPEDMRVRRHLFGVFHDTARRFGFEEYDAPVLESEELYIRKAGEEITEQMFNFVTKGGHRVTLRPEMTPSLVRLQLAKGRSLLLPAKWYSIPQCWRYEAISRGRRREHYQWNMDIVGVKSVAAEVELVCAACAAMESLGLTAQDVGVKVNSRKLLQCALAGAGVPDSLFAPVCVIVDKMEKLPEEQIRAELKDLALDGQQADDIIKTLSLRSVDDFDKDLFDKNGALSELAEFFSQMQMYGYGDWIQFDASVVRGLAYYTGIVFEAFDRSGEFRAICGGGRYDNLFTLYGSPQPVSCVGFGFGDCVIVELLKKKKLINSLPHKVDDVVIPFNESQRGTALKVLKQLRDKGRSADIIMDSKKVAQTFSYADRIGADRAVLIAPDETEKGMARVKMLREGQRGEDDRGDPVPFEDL
Put plainly: Leishmania infantum Histidine tRNA synthetase (LdHisRS). Format: functional.

A short description of assay [6]: microbe, parasite or virus in culture. The following applies: Mycobacterium tuberculosis, 72 h, read-out: pIC50 (converted).
Assay [7] can be described thus: microbe, parasite or virus in culture. Particulars: Mycobacterium tuberculosis, 96 h, read-out: pIC50 (converted).
Assay [8] relates to Plasmodium falciparum. Put plainly: Calibr Malaria Delayed Death Assay SOP. Format: functional, organism-based. The following applies: for IC50: Plasmodium falciparum.
Assay [9] relates to Mycobacterium tuberculosis. The assay is described as follows: Cornell M. t heat shock assay. Format: functional, organism-based. The following applies: for IC50: Mycobacterium tuberculosis.
Assay [10] concerns the target ClpP1P2 (Mycobacterium tuberculosis (strain ATCC 25618 / H37Rv), UniProt P9WPC3+P9WPC5). Put plainly: in vitro assay to detect presence of AMC directly proportional to the activity of ClpP1P2. GHDDI collaboration. Type of assay: functional.
Assay [11] concerns the target T2, Coenzyme A biosynthesis bifunctional protein CoaBC (Mycobacterium tuberculosis (strain ATCC 25618 / H37Rv), UniProt P9WNZ1).
T2 sequence (P9WNZ1 whole entry): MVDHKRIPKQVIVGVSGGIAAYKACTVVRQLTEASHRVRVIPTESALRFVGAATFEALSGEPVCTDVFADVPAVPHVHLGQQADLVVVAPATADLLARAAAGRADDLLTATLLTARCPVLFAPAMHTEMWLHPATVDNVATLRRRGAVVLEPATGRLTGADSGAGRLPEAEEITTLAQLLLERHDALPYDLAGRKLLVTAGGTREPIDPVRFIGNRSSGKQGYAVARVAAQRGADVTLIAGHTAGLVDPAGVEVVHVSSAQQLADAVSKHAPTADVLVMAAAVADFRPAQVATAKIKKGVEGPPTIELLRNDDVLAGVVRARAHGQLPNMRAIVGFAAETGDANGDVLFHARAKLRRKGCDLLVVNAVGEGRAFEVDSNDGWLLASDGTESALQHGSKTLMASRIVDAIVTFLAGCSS
The assay is described as follows: Biomol Green assay for MtCoaBC inhibitor, OD650 read. Type of assay: functional.

Assay [12] has as its target Tryptophan--tRNA ligase (Mycobacterium tuberculosis (strain ATCC 25618 / H37Rv), UniProt P9WFT3). The assay is described as follows: Biochemical assay for Mt-TrpRS. Format: functional.
Assay [13] relates to Wolbachia pipientis. The assay is described as follows: Anti-Wolbachia Cell-Based Screen. Type of assay: functional.
The target of assay [14] is T3, Histidine--tRNA ligase (Trypanosoma cruzi (strain CL Brener), UniProt Q4DA54).
T3 sequence (Q4DA54 whole entry): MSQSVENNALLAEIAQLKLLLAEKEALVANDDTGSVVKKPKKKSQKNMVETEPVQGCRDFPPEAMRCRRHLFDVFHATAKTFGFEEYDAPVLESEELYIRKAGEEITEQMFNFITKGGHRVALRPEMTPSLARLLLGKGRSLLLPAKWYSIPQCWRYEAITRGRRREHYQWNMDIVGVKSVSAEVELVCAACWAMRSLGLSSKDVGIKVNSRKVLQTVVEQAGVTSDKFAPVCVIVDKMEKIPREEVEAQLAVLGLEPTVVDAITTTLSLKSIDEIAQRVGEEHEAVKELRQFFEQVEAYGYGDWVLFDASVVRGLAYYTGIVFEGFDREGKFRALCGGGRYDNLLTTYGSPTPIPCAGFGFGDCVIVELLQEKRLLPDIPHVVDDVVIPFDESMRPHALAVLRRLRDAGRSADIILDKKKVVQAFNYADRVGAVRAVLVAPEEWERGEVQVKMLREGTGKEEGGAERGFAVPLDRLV
The assay is described as follows: Trypanosoma cruzi histidyl tRNA synthetase (Tc-HisRS). Format: functional.

Where “and” joins values, the source holds several entries; their conditions need not be identical. Equal entries are not always repeated.

`O=C(CN1CC(n2cccn2)C1)NCCc1c[nH]c2ccccc12` came in with a pIC50 in assay [1] below 4.
The same measure, in the same setting: with `CCS(=O)(=O)CC(=O)NC(c1ccc(F)cc1)C1CCCC1` (configuration not stated) the figure was below 4.
On the same count and under the same terms, with `CNC(=O)c1cccc(NC(=O)Cn2nc(-c3cccs3)oc2=O)c1` the figure was below 4.
The same measure, in the same setting: with `Cn1cnc(S(=O)(=O)N2C[C@@H]3CC[C@H](C2)N(Cc2ccccn2)C3)c1` the figure was below 4; with `Cl.Cl.c1cc(COC[C@@H]2CCC[C@@]23CNCCO3)ccn1`, below 4.
Turning to `Nc1cc(N2CCC(c3cc(Cc4ccccc4)n[nH]3)CC2)ccn1`, the pIC50 was 5.138 and 5.184 in assay [2]; 4.671 in assay [3]; 5.141 in [4]. Further, the IC50 is 6.85 µM in assay [2]; 17.4 µM in [3]; 4.92 µM in [4]; 69.6 µM and 73.8 µM in [5].
For `COc1cc(CNC2CCCc3c2cnn3C)cc(OC)c1.Cl` (configuration not stated), the pIC50 in assay [1] is below 4.
As for `O=C(NCCNc1ccc(C(F)(F)F)cn1)c1cncc(Br)c1`, the pIC50 in assay [1] is 4.385 and < 4.
In the case of `CCN(Cc1c(F)cccc1Cl)c1cc(C2CCNCC2)nc(C)n1`, the IC50 in assay [6] was 37.4 µM; in assay [7] it was 24.4 µM; in assay [8] it was 0.495 µM; in [2] it was 4.96 µM; in assay [3] it was 3.56 µM; in assay [4] it was 4.56 µM. The pIC50 in [8] was 6.254; in assay [2], 5.239 and 5.238; in [3], 5.445.
For the molecule `Cc1ccsc1C(=O)N1CC(C(=O)N2CCOCC2)C2(CCOCC2)C1` (configuration not stated), in assay [1], the pIC50 was below 4.
Still for that read-out and setting: with `CN1CCC(c2n[nH]c(=O)n2-c2cccc(Cl)c2)CC1` the figure was below 4; with `COc1cc(C(=O)N2CCCC(CNS(C)(=O)=O)C2)cc(OC)c1C` (configuration not stated), below 4; with `CC(C)c1cc(NC(=O)c2cccnc2)[nH]n1`, 4.473 and 4.751.
The same measure, in the same setting: the same measure for `Cc1ccc2c(n1)N(C)CCN(C(=O)NC1CC1)C2.O=C(O)C(F)(F)F`: below 4; for `CCn1nc(C)c2ccn(CC(=O)NC3CCCC3)c(=O)c21`: below 4; for `CCc1cc(C)c(C(=O)N2CCCC2CC(=O)c2cnn(C)c2)o1` (configuration not stated): below 4.
Same read-out and setting: the same measure for `O=C(NCC1CC1)C1CN(C(=O)c2cccc(Cl)c2)CC12CCOCC2` (configuration not stated): below 4; for `Cc1cccc(-c2nc(CN3CCc4cnc(C)nc4C3)no2)c1`: below 4.
With `Cl.NC1CCc2nc(-c3cccnc3)nc(Nc3ccc(F)cc3)c2C1` (configuration not stated), the IC50 in assay [6] is 22.2 µM; in assay [7] it was 48.6 µM; in assay [8], 0.204 µM; in assay [2], 7.84 µM; in assay [3], 8.3 µM; in [9], 6.43 µM. Also, the pIC50 in assay [8] is 6.698; in [2] it was 5.072 and 4.886; in [3], 5.001; in [9] it was 4.893.
With `CC1COCCN1Cc1nc(-c2cccs2)no1` (configuration not stated), in assay [1], the negative-log IC50 (pIC50) was below 4.
For the molecule `Cc1cc(C)n(CCCn2cncc2-c2ccc3c(c2)CC(C)N3C)n1.Cl` (configuration not stated), the pIC50 in assay [8] is 5.88; in [2], 4.689 and 4.712; in assay [9] it was 4.037. For the same molecule, the IC50 in assay [8] was 1.59 µM; in [10], above 100 µM; in assay [2], 28.9 µM; in assay [9], 76.7 µM; in assay [11] it was above 30.2 µM; in assay [5], 23.7 µM and 22.2 µM.
On to `c1cncc(-c2ccc3c(c2)C2(CCNCC2)CC3)c1`, for which the pIC50 in [1] is below 4.
Same read-out and setting: the same measure for `Cc1ccc(NC(=O)c2cc(S(=O)(=O)N3CCCCC3)c[nH]2)cc1F`: below 4.
For `CN(C)S(=O)(=O)c1ccc(-c2nc(C#N)c(NC(C)(C)C)o2)o1.Cl`, the IC50 in assay [10] was above 100 µM; in assay [2] it was 18.4 µM; in [3], above 50.1 µM; in assay [4], 7.65 µM; in assay [9] it was 11.3 µM. In addition, the pIC50 in assay [2] was 4.737 and 4.726.
`Cc1nc(N2CCN(C)CC2)ncc1C(=O)N1CCC(O)(CO)CC1` showed a pIC50 in [1] below 4.
Turning to `Cc1nc(C2(O)CCCNCC2)sc1CCOc1ccc(F)c(F)c1.Cl` (configuration not stated), the IC50 in assay [12] was above 195 µM; in assay [2] it was 6.99 µM; in [3], 11.6 µM. The pIC50 in assay [2] is 5.175 and 5.131; in assay [3], 4.936.
For the molecule `CCCc1cc(=O)[nH]c(-n2nc(C3CC3)cc2N)n1`, the IC50 in assay [6] is 16.1 µM; in assay [7], 23.8 µM; in assay [2] it was 5.23 µM; in assay [3], 39.6 µM; in assay [4] it was 1.95 µM; in assay [9] it was 6.14 µM. The pIC50 was 5.268 and 5.368 in assay [2]; 4.51 in [3]; 5.649 in assay [4].
Take `COc1c(C)cnc(CN(C)C2CCCCC2)c1C`: the pIC50 was 5.441 in [13]; 5.179 and 5.161 in assay [2]; 4.733 in assay [3]; 5.219 in [4]. Besides, the IC50 is 6.39 µM in assay [13] (Wolbachia pipientis), 6.48 µM in assay [2], 13.3 µM in assay [3] and 4.88 µM in [4].
Regarding `CCn1ncc(-c2cc(C(F)(F)F)nc(N3CCC(N)CC3)n2)c1C`, the IC50 is above 50.1 µM in assay [6]; above 50.1 µM in [7]; 5.74 µM in assay [2]; 11.9 µM in assay [3]; above 100 µM in assay [14]. The pIC50 is 5.225 and 5.224 in assay [2]; 5.222 and 5.563 in assay [4].
In the case of `CC(C)c1cc(=O)[nH]c(-n2nc(C3CC3)cc2N)n1`, the IC50 in assay [6] is 12.5 µM; in [7], 11.5 µM; in [2] it was 2.09 µM; in assay [3], 40.3 µM; in [9] it was 4.63 µM. Besides, the pIC50 was 5.692 and 5.673 in assay [2]; 4.627 in assay [3]; 6.102 and 5.757 in assay [4].
With `CCc1cc(=O)[nH]c(-n2nc(C3CC3)cc2NC(=O)C2CC2)n1`, the IC50 was 12.5 µM in assay [6]; 11.4 µM in assay [7]; 3.41 µM in assay [2]; 29.8 µM in assay [3]; 1.58 µM in assay [4]. Also, the pIC50 in assay [2] is 5.404 and 5.398; in assay [3], 4.573; in assay [4], 5.904.
Turning to `FC1(F)CCN(Cc2cccnc2)CC12CCN(c1ccccc1)C2.O=C(O)C(F)(F)F.O=C(O)C(F)(F)F.O=C(O)C(F)(F)F` (configuration not stated), the IC50 in assay [6] was 43.8 µM; in assay [7], 12.5 µM; in assay [8], 1.16 µM; in assay [2] it was 6.05 µM; in assay [11] it was above 30.2 µM; in assay [5], 13.6 µM and 18.6 µM. Besides, the pIC50 in assay [8] is 5.955; in assay [2] it was 5.234 and 5.17.
Take `Cl.NC1CCc2nc(-c3ccncc3)nc(Nc3cccc(F)c3)c2C1` (configuration not stated): the pIC50 in assay [2] is 5.636 and 5.623; in assay [3], 5.181; in [9] it was below 4. In addition, the IC50 in [2] is 2.41 µM; in [3], 5.99 µM; in [4], 3.66 µM; in assay [9], 50.4 µM; in assay [5] it was 46.3 µM and 51.2 µM.
